Publication PMC3211509 (Nanoscale Research Letters, 2011)

Assays:
[1] = design: method as in printed; details: ref not given; cited from earlier work
[2] = design: method as in earlier work; details: oral, 1 compartment, first-order elimination ref 15; cited from earlier work
[3] = test system: spontaneously hypertensive rats; design: method as in printed; details: reported, ref not given; cited from earlier work
[4] = test system: human vascular smooth muscle (VSM) cell; design: method as in PMID 11090543, PMID 11842228; details: cited from earlier work
[5] = Drug absorbed in vivo after oral dose (Wagner-Nelson equation); details: rat, 30 mg/kg, at Cmax
Excerpt: A model based on the Wagner-Nelson (W-N) equation was established in-house and was used to calculate the drug absorbed to further assess the amount of drug absorbed as a function of time. The utilization of the W-N equation allows us to obtain all the drug that is absorbed (including excreted) at different time points. This allowed us to estimate the relationship and the impact on the absorption on the surface area changes of the drug. [drawing 2] [drawing 3]
where A is the drug absorbed, V is the volume of distribution, Cp is the plasma concentration, K is the elimination rate constant, and t is time.
In order to understand the degree of improvement provided by an oral nanosuspension formulation, simulations were performed using a Wagner-Nelson equation-based model that was established in-house in order to assess the amount of drug absorbed (dA) as a function of time. In this model, the stomach empting time was taking into consideration. […] The unit surface area by weight (A/W) was calculated to estimate the surface area reduction after the absorption took place, and the total residual surface area (RA) was calculated for each time point. The absorption efficiency (AE) was calculated by taking the ratio of the amount of drug available and was divided by the RA (AE = W/RA), and the absorption constant (K) was calculated as AE/δT. […]

- Drug absorbed, In vivo (Wagner-Nelson equation) [5]: 1.1 mg
SMILES: O=C(NC1CCCCC1)NC1CCCCC1 [DCU, 1,3-Dicyclohexylurea]
- free fraction in plasma (unbound) [1]: 3%
- K01 (absorption rate constant) [2]: 26.3 h⁻¹
- K10 (elimination rate constant) [2]: 0.277 h⁻¹
- Vf [2]: 5.8 L
- effect on systemic blood pressure [3]: lower systemic blood pressure
- human VSM cell proliferation [4]: inhibits human vascular smooth muscle (VSM) cell proliferation in a dose-dependent manner
